# Assay results from patent US20100016213A1, “USE OF A DITERPENOID COMPOUND FOR TREATING DIABETES” (National Taiwan University, priority 2008, published 2010).
# Experiments:
# Assay type in all cases: in vivo
# [1] = test system: DIO-induced diabetic mice; test: Lowering plasma glucose level, intraperitoneal injection, diet-induced obesity diabetic mice (type II diabetes model); conditions: for plasma glucose level one hour after treatment: basal (untreated) 174.6±7.7 mg/dL
# Procedure: Normal and diet-induced obesity diabetic mice (“DIO-induced diabetic mice) were administered with borapetoside A (5.0 mg/kg), borapetoside C (5.0 mg/kg), glibenclamide (5.0 mg/kg), metformin (500.0 mg/kg), or a vehicle control via intraperitoneal injection. DIO-induced diabetic mice are a well-known mouse model of type II diabetes (non-insulin dependent). See Liu et al., J Mol. Endocrinol. 2008.
# The plasma glucose levels of the treated mice were determined before and one hour after administration. The activities of these compounds for lowering plasma glucose levels were calculated as described above.
# Borapetoside C was administered to DIO-induced diabetic mice at 0.1, 1.0, 3.0, and 5.0 mg/kg and the plasma glucose levels were examined before and after administration. The basal plasma glucose concentration in diet-induced diabetic mice (untreated) was 174.6±7.7 mg/dL. One hour after treatment, the plasma glucose levels in mice treated with vehicle control, 0.1 mg/kg borapetoside C, 1.0 mg/kg borapetoside C, 3.0 mg/kg borapetoside C, and 5.0 mg/kg borapetoside C were 172.5±10.9 mg/dL, 170.5±6.8 mg/dL, 127.9±6.0 mg/dL, 121.3±4.3 mg/dL and 119.9±4.6 mg/dL, respectively.
# [2] = test system: normal mice; test: Lowering plasma glucose levels via oral administration, normal mice; conditions: oral 10.0 mg/kg, sixty minutes after treatment, mean ± SEM, six animals
# Procedure: Normal, STZ-induced diabetic mice, and diet-induced diabetic mice were administered orally with 10.0 mg/kg borapetoside C, glibenclamide or metformin as a positive control, and a vehicle control. The plasma glucose levels of the treated mice were determined before and sixty minutes after treatment and the results thus obtained were shown in Table 3 below.
# [3] = test system: STZ-diabetic mice(IDDM); test: Glycogen content in skeletal muscle, STZ-diabetic mice; conditions: 5 mg/kg i.p., 30 minutes after injection
# Procedure: Normal, STZ-induced diabetic, and DIO-induced diabetic mice were intraeritoneally injected with borapetoside C (5 mg/kg) and Actrapid (0.5 IU/kg; a short-acting insulin provided by Novo Nordisk) or metformin (500 mg/kg). Their glycogen contents in skeletal muscle were determined 30 minutes after injections.
# [4] = test system: DIO-induced diabetic mice; test: Intraperitoneal glucose tolerance test (IPGTT), DIO-induced diabetic mice; conditions: diet-induced diabetic mice, borapetoside C 5.0 mg/kg
# Procedure: Normal ICR mice and DIO-induced diabetic mice, treated with borapetoside C (5.0 mg/kg), a vehicle control, or glibenclamide (positive control), were subjected to an intraperitoneal glucose tolerance test (IPGTT) as described in Lamont et al., Diabetes 2008; 57: 190-198. More specifically, glucose (2.0 mg/g body weight) was administered via IP injection to normal and DIO mice and blood samples were drawn from the treated mice before and 30, 60, 120, and 150 min after glucose administration for examination of glucose levels.
# In diet-induced diabetic mice treated with borapetoside C, the vehicle control, and glibenclamide, the basal plasma glucose concentrations were 181.6±12.3 mg/dL, 183.1±2.9 mg/dL, and 185.3±7.7 mg/dL, respectively. Thirty minutes after intraperitoneal glucose injection, the plasma glucose concentration was elevated to 405.6±8.9 mg/dL in vehicle-treated mice, to 343.5±11.2 mg/dL in borapetoside C-treated mice, or to 339.1±15.4 mg/dL in glibenclamide-treated mice.
# [5] = test system: normal mice; test: Insulin sensitivity: plasma glucose reduction with insulin plus borapetoside C or vehicle, normal mice; conditions: thirty minutes after insulin
# Procedure: (§1) The effect of borapetoside C on insulin sensitivity was tested following the method described in Liu, et al., Clinical and Experimental Pharmacology and Physiology 2005; 32: 649-654. Normal mice (n=6), STZ-induced diabetic mice (n=5), and DIO-induced diabetic mice (n=7) were treated with insulin at various doses (i.e., 0.1 IU/kg, 0.5 IU/kg, and 1.0 IU/kg) together with either borapetoside C (0.1 mg/kg) or a vehicle control. Their plasma glucose levels were examined before and thirty minutes after insulin administration. The activity of lowering plasma glucose levels (AL) was calculated following the formula described in Example 2 above.
# [6] = test system: STZ-induced diabetic mice; test: Insulin sensitivity: plasma glucose reduction with insulin plus borapetoside C or vehicle, STZ-induced diabetic mice; conditions: thirty minutes after insulin
# Procedure: as §1
# [7] = test system: DIO-induced diabetic mice; test: Insulin sensitivity: plasma glucose reduction with insulin plus borapetoside C or vehicle, DIO-induced diabetic mice; conditions: thirty minutes after insulin
# Procedure: as §1
# [8] = Borapetoside C 0.1 mg/kg together with Insulin 0.1 IU/kg
# [9] = Borapetoside C 0.1 mg/kg together with Insulin 0.5 IU/kg
# [10] = Borapetoside C 0.1 mg/kg together with Insulin 1.0 IU/kg
structure (smiles),measurement,setting,value
COC(=O)C1=CCC[C@H]2[C@]3(C)C[C@@H](c4ccoc4)OC(=O)[C@@H]3C[C@@H](O[C@@H]3O[C@H](CO)[C@@H](O)[C@H](O)[C@H]3O)[C@@]12C [borapetoside C],plasma glucose level one hour after treatment,[1]; 0.1 mg/kg,170.5 ± 6.8 mg/dL
same,plasma glucose level one hour after treatment,[1]; 1.0 mg/kg,127.9 ± 6.0 mg/dL
same,plasma glucose level one hour after treatment,[1]; 3.0 mg/kg,121.3 ± 4.3 mg/dL
same,AL (activity of lowering plasma glucose levels),"[1]; 5.0 mg/kg intraperitoneal injection, one hour after administration",29.4±1.0%
same,plasma glucose level one hour after treatment,[1]; 5.0 mg/kg,119.9 ± 4.6 mg/dL
same,Activity of lowing plasma glucose levels (%),[2],23.1 ± 2.8 %
same,Glycogen content (μmol/g wet weight),[3],23.2 ± 0.7 μmol/g wet weight
same,basal plasma glucose concentration (IPGTT),[4]; before glucose injection,181.6 ± 12.3 mg/dL
same,"plasma glucose levels at 60 min, 120 min, and 150 min versus control mice (IPGTT)",[4]; glucose 2.0 mg/g IP,significantly lower
same,plasma glucose concentration thirty minutes after intraperitoneal glucose injection (IPGTT),"[4]; glucose 2.0 mg/g body weight IP, vehicle 405.6±8.9",343.5 ± 11.2 mg/dL
same,AL (%),[5]; [8],17.2 ± 1.2%
same,AL (%),[5]; [9],45.7 ± 3.7%
same,AL (%),[5]; [10],64.7 ± 1.8 %
same,AL (%),[6]; [8],10.5 ± 1.4%
same,AL (%),[6]; [9],18.9 ± 2.1%
same,AL (%),[6]; [10],32.2 ± 2.1 %
same,AL (%),[7]; [8],24.0 ± 1.1%
same,AL (%),[7]; [9],31.6 ± 1.6%
same,AL (%),[7]; [10],42.5 ± 0.8 %
